Experimental data as given in paper PMC7029871, “Development and validation of a sensitive LC-MS/MS method for the quantitation of IMB-YH-4py5-2H, an antituberculosis candidate, and its application to the pharmacokinetic study” (PLoS ONE, 2020).
Entries after “also recorded” stand apart in the source; their conditions may differ. Like-named read-outs stand apart in the source and are kept apart here.

Assays:
[1] = compared with YH-8; method and reference not given; cited from earlier work
[2] = Metabolic stability assay in human liver microsomes; format: in vitro ADME; details: pH 7.4, HLMs 0.1 mg/mL, 37°C, NADPH
Experimental: IMB-YH-4py5-2H was incubated at 37°C for 0, 15, 30, 45, and 60 min in human liver microsomes (HLMs) for the metabolic stability study. The incubation system included 0.1 mg/mL pooled liver microsomes, 100 mM phosphate-buffered saline (PBS, pH 7.4), NADPH regeneration system (the final concentration contained 3.3 mM glucose-6-phosphate, 1.3 mM NADP^+, 0.4 U/mL glucose-6-phosphate dehydrogenase and 3.3 mM MgCl2), and 1 μM IMB-YH-4py5-2H.
After incubation, the samples were processed as described in “Sample processing”. All experiments were performed in triplicate. The concentration of IMB-YH-4py5-2H was measured using LC-MS/MS analysis.

Rat AMs NR8383 cells = experiment: In vitro uptake study in alveolar macrophages; format: cell-based; details: 24 h-exposure in 2 μg/mL
Experimental: Rat AMs NR8383 cells (American Type Culture Collection, Manassas, VA, USA) were grown overnight at 37°C with 5% CO2 in Ham’s F12K medium (Gibco, Grand island, NY, USA) containing 20% fetal bovine serum (FBS, Gibco, Thornton, Australia) in 24-well culture plates (4 × 10^5 cells/well in 1 mL culture medium). After 24 h-exposure to IMB-YH-4py5-2H (2 μg/mL), the culture medium and the subsequent three washes were pooled and processed further for the determination of the extracellular drug concentrations. The cells were then extracted with 0.1 M NaOH to collect the intracellular drug for the LC-MS/MS analysis. All experiments were done in triplicate. The intracellular/extracellular drug concentration ratios were then calculated.

[3] = Distribution in plasma, lung homogenate, ELF and AMs after oral dose; format: in vivo, Sprague-Dawley rats; details: rat, single oral dose 100 mg/kg; for concentration at 8 h / concentration at 30 h / concentration at 0.083 h / concentration at 0.5 h: both sexes, Sprague-Dawley
Experimental: After the oral administration of 100 mg/kg IMB-YH-4py5-2H, rats from each group (six rats per group and three rats per sex) were sacrificed at 5 min, 0.5 h, 8 h, and 30 h. Rat lungs were collected, rinsed with saline, wiped dry, accurately weighed and homogenized with ultrapure water. The homogenate was kept at −20°C until analysis.
As two representative infectious sites in lower respiratory tract infections, lung epithelial lining fluid (ELF) and alveolar macrophages (AMs) were investigated to determine the distribution of IMB-YH-4py5-2H. Freshly collected rat lungs were lavaged three times from the trachea with 5 mL of ice-cold phosphate buffer (pH 7.4). The lavage fluid was centrifuged at 4°C (650 × g, 5 min) to separate AMs from the ELF, immediately. The cell counts of the resuspended AMs were assessed by using the haemocytometer. The AMs were extracted with 1 mL of 0.1 M NaOH for analysis. To calculate the concentrations of IMB-YH-4py5-2H in ELF and AMs, reported data were employed. As reported, the total volume of ELF was estimated to be 393 μL/rat (~200 g body weight), and the intracellular volume of a single AM was 1166 μm^3 [25]. Based on the reported volume of a single AM, the raw data of IMB-YH-4py5-2H concentrations in AMs, expressed as ng/10^5 cells, were converted to the values with the unit of μg/mL (Eq 1), which was consistent with the unit of concentrations in plasma and ELF and easier for comparison.
CAM (μg/mL) is the concentration of IMB-YH-4py5-2H expressed as μg/mL, CAM (ng/10^5 cells) is the concentration with the unit of ng/10^5 cell, and V is the volume of a single AM (1166 μm^3).
The homogenate, ELF, and AM samples were processed as described in “Sample processing” and injected into the LC-MS/MS system for analysis.

[4] = Stability of QC samples in rat plasma; format: in vitro ADME; details: for %Theoretical, Autosampler: extracted plasma QC; for %Theoretical, Long-term / %Theoretical, 24 h ambient / %Theoretical, freeze-thaw: rat plasma; for %Theoretical, Long-term: 2 weeks at -20°C
Experimental: Six replicates of the QC samples at low, medium and high concentrations subjected to the conditions below were evaluated for the stability of IMB-4py5-2H in rat plasma. Short-term stability was assessed by the analysis of the QCs kept at room temperature for 24 h, which exceeded the routine preparation time of the samples. Long-term stability was determined by assaying the QCs after storage for 2 weeks at −20°C. Freeze–thaw stability was investigated after three freeze (−20°C)–thaw (room temperature) cycles. Post-preparative stability was assessed by analyzing the extracted QC samples kept in autosampler at 4°C for 24 h.

[5] = system: intracellular M. tuberculosis H37Rv; experiment: Intracellular activity assay in infected macrophages; format: cell-based, Mycobacterium tuberculosis; details: for Log10CFU: three-day incubation, infected J744 macrophages, untreated 6.47±0.04
[6] = extracellular concentration of 2 μg/mL

In the case of `CN(C)C(=O)/C=C/C(=O)c1ccc(-c2ccncc2)cc1.Cl` [IMB-YH-4py5-2H, (E)-N,N-dimethyl-4-oxo-4-(4-(pyridin-4-yl)phenyl)but-2-enamide hydrochloride], the water solubility [1] is listed as “better water solubility; also recorded: improved water solubility”, the half-life at 1 μM [2] is listed as less than 15 min and the “intracellular to extracellular concentration ratio (I/E ratio)” value (Rat AMs NR8383 cells) is listed as 133.4±12.5. For the same molecule, the concentration at 8 h ([3]; alveolar macrophages (AMs), 8 h, converted with reported volume of a single AM (Eq 1), read-out: Concentration, AMs) was 99.7 ± 36.7 µg/mL, the concentration at 30 h ([3]; alveolar macrophages (AMs), 30 h, converted with reported volume of a single AM (Eq 1), read-out: Concentration, AMs) was 25.3 ± 19.4 µg/mL and the concentration at 0.083 h ([3]; lung epithelial lining fluid (ELF), 0.083 h, ELF volume taken as 393 μL/rat, read-out: Concentration, ELF) was 0.639 ± 0.093 µg/mL. It also gave a concentration at 0.5 h ([3]; lung epithelial lining fluid (ELF), 0.5 h, ELF volume taken as 393 μL/rat, read-out: Concentration, ELF) of 1.8 ± 0.264 µg/mL, a concentration at 8 h ([3]; lung epithelial lining fluid (ELF), 8 h, ELF volume taken as 393 μL/rat, read-out: Concentration, ELF) of 0.121 ± 0.032 µg/mL and a concentration at 30 h ([3]; lung epithelial lining fluid (ELF), 30 h, ELF volume taken as 393 μL/rat, read-out: Concentration, ELF) of 0.05 ± 0.045 µg/mL. It also gave a concentration at 0.083 h ([3]; lung homogenate, 0.083 h, read-out: Concentration, lung homogenate) of 4410 ± 607 ng/g, a concentration at 0.5 h ([3]; lung homogenate, 0.5 h, read-out: Concentration, lung homogenate) of 10900 ± 1960 ng/g and a concentration at 8 h ([3]; lung homogenate, 8 h, read-out: Concentration, lung homogenate) of 107 ± 22 ng/g. The concentration at 30 h ([3]; lung homogenate, 30 h, read-out: Concentration, lung homogenate) was 11 ± 3 ng/g, the concentration at 0.083 h ([3]; plasma, 0.083 h, read-out: Concentration, Plasma) was 0.917 ± 0.071 µg/mL and the concentration at 0.5 h ([3]; plasma, 0.5 h, read-out: Concentration, Plasma) was 1.06 ± 0.192 µg/mL. For the same molecule, the concentration at 8 h ([3]; plasma, 8 h, read-out: Concentration, Plasma) was 0.155 ± 0.029 µg/mL, the concentration at 30 h ([3]; plasma, 30 h, read-out: Concentration, Plasma) was 0.039 ± 0.012 µg/mL and the “Concentration, AMs” value ([3]; 0.083 h) was 166.763±40.110 ng/10^5 cells. For the same molecule, the “Concentration, AMs” value ([3]; 0.083 h, converted with reported volume of a single AM (Eq 1)) was 1494.295 ± 359.408 µg/mL, the “Concentration, AMs” value ([3]; 0.5 h) was 227.198±35.589 ng/10^5 cells and the “Concentration, AMs” value ([3]; 0.5 h, converted with reported volume of a single AM (Eq 1)) was 2035.827 ± 318.898 µg/mL. The “Concentration, AMs” value ([3]; 8 h) was 11.128±4.099 ng/10^5 cells, the “Concentration, AMs” value ([3]; 30 h) was 2.823±2.164 ng/10^5 cells and the “%Theoretical, Autosampler” value ([4]; autosampler 4°C 24 h, nominal 2.5 ng/mL) was 100.11 ± 1.20%. The “%Theoretical, Autosampler” value ([4]; autosampler 4°C 24 h, nominal 20 ng/mL) was 103.26 ± 6.07%, the “%Theoretical, Autosampler” value ([4]; autosampler 4°C 24 h, nominal 80 ng/mL) was 97.85 ± 4.96% and the “%Theoretical, Long-term” value ([4]; nominal 2.5 ng/mL) was 92.33 ± 4.21%. For the same molecule, the “%Theoretical, Long-term” value ([4]; nominal 20 ng/mL) was 91.65 ± 3.91%, the “%Theoretical, Long-term” value ([4]; nominal 80 ng/mL) was 94.98 ± 7.26% and the “%Theoretical, 24 h ambient” value ([4]; room temperature 24 h, nominal 2.5 ng/mL) was 94.35 ± 3.65%. For the same molecule, the “%Theoretical, 24 h ambient” value ([4]; room temperature 24 h, nominal 20 ng/mL) was 91.96± 5.79%, the “%Theoretical, 24 h ambient” value ([4]; room temperature 24 h, nominal 80 ng/mL) was 103.77 ±2.51% and the “%Theoretical, freeze-thaw” value ([4]; three freeze-thaw cycles, nominal 2.5 ng/mL) was 90.11 ± 6.19%. The “%Theoretical, freeze-thaw” value ([4]; three freeze-thaw cycles, nominal 20 ng/mL) was 88.79 ± 3.27%, the “%Theoretical, freeze-thaw” value ([4]; three freeze-thaw cycles, nominal 80 ng/mL) was 94.17 ± 5.10% and the “stability in rat plasma” value ([4]; room temperature 24 h, -20°C 2 weeks, three freeze-thaw cycles, autosampler 4°C 24 h) was “stable”. For the same molecule, the Log10CFU ([5]; 0.5 μg/mL) was 6.44±0.02 Log10CFU, the Log10CFU ([5]; 1 μg/mL) was 6.40±0.05 Log10CFU and the Log10CFU ([5]; 2 μg/mL) was 6.02±0.11 Log10CFU. The “bacterial density reduction on intracellular M. tuberculosis” value [5, 6] was roughly 70% and the “reduction on intracellular M. tuberculosis” value [5, 6] was 0.45 log10CFU.
